# According to ChEMBL document CHEMBL1145549, “Constrained NBMPR analogue synthesis, pharmacophore mapping and 3D-QSAR modeling of equilibrative nucleoside transporter 1 (ENT1) inhibitory activity” (Bioorg Med Chem, 2008):
# Molecular target: T1, Equilibrative nucleoside transporter 1 (Homo sapiens, UniProt Q99808)
# T1 sequence (Q99808 whole entry): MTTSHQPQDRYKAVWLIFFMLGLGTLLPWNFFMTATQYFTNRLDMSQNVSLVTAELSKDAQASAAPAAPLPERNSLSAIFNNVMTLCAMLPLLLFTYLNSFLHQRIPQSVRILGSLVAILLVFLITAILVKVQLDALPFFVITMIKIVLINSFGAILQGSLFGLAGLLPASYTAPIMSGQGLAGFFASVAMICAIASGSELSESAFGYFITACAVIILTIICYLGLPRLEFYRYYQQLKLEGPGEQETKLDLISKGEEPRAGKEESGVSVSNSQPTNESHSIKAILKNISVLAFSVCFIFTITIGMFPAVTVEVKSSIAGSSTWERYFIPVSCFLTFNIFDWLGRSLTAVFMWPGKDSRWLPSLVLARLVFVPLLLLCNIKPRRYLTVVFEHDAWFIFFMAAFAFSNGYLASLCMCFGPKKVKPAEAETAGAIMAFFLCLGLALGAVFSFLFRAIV
# Assay: Binding affinity to ENT1 transporter
row,IC50 [µM],Structure (SMILES)
1,115,COc1cccc(CNc2ncnc3c2ncn3[C@@H]2O[C@H](CO)[C@@H](O)[C@H]2O)c1
2,1.78,OC[C@H]1O[C@@H](n2cnc3c(CSc4ccccc4Cl)ncnc32)[C@H](O)[C@@H]1O
3,115,CSc1ncnc2c1c(Br)cn2[C@@H]1O[C@H](CO)[C@@H](O)[C@H]1O
4,4.17,Nc1ccc(CNc2ncnc3c2ncn3[C@@H]2O[C@H](CO)[C@@H](O)[C@H]2O)cc1
5,0.282,OC[C@H]1O[C@@H](n2cnc3c(CSc4cccc(Cl)c4)ncnc32)[C@H](O)[C@@H]1O
6,0.245,OC[C@H]1O[C@@H](n2cnc3c(CSc4cccc(I)c4)ncnc32)[C@H](O)[C@@H]1O
7,0.2,OC[C@H]1O[C@@H](n2cnc3c(CSc4cccc(F)c4)ncnc32)[C@H](O)[C@@H]1O
8,0.224,OC[C@H]1O[C@@H](n2cnc3c(CSc4ccc(Cl)c(Cl)c4)ncnc32)[C@H](O)[C@@H]1O
9,204,CSc1nc(N)nc2c1ncn2[C@@H]1O[C@H](CO)[C@@H](O)[C@H]1O
10,1.51,OC[C@H]1O[C@@H](n2cnc3c(CSc4c(F)cccc4Cl)ncnc32)[C@H](O)[C@@H]1O
11,0.0692,OC[C@H]1O[C@@H](n2cnc3c(CSc4ccc(I)cc4)ncnc32)[C@H](O)[C@@H]1O
12,0.282,OC[C@H]1O[C@@H](n2cnc3c(CSc4ccccc4I)ncnc32)[C@H](O)[C@@H]1O
13,0.355,OC[C@H]1O[C@@H](n2cnc3c(CSc4ccccc4F)ncnc32)[C@H](O)[C@@H]1O
14,0.617,COc1ccc(SCc2ncnc3c2ncn3[C@@H]2O[C@H](CO)[C@@H](O)[C@H]2O)cc1
15,195,OC[C@H]1O[C@@H](n2ccc3c(N4CCCCC4)ncnc32)[C@H](O)[C@@H]1O
16,91.2,OC[C@H]1O[C@@H](n2cnc3c(Sc4ccccc4)ncnc32)[C@H](O)[C@@H]1O
17,46.8,O=[N+]([O-])c1cc(Cl)ccc1CNc1ncnc2c1ncn2[C@@H]1O[C@H](CO)[C@@H](O)[C@H]1O
18,0.158,OC[C@H]1O[C@@H](n2cnc3c(CSc4ccc(F)cc4)ncnc32)[C@H](O)[C@@H]1O

row,IC50 [µM],Structure (SMILES)
1,0.457,Cc1ccc(CSc2ncnc3c2ncn3[C@@H]2O[C@H](CO)[C@@H](O)[C@H]2O)cc1
2,77.6,OC[C@H]1O[C@@H](n2cc(I)c3c(Cl)ncnc32)[C@H](O)[C@@H]1O
3,229,CSc1ncnc2c1ncn2[C@@H]1O[C@H](CO)[C@@H](O)[C@H]1O
4,339,COc1ncnc2c1ccn2[C@@H]1O[C@H](CO)[C@@H](O)[C@H]1O
5,0.0813,N#Cc1ccc(SCc2ncnc3c2ncn3[C@@H]2O[C@H](CO)[C@@H](O)[C@H]2O)cc1
6,0.0776,OC[C@H]1O[C@@H](n2cnc3c(CSc4ccc(Cl)cc4Cl)ncnc32)[C@H](O)[C@@H]1O
7,0.0316,O=[N+]([O-])c1ccc(CNc2ncnc3c2ncn3[C@@H]2O[C@H](CO)[C@@H](O)[C@@H]2O)cc1
8,5.25,OC[C@H]1O[C@@H](n2ccc3c(SCc4ccccc4)ncnc32)[C@H](O)[C@@H]1O
9,0.178,OC[C@H]1O[C@@H](n2cnc3c(CSc4ccc(Br)cc4)ncnc32)[C@H](O)[C@@H]1O
10,2.4,OC[C@H]1O[C@@H](n2cnc3c(CSc4ccccc4Br)ncnc32)[C@H](O)[C@@H]1O
11,0.363,OC[C@H]1O[C@@H](n2cnc3c(CSc4cccc(Br)c4)ncnc32)[C@H](O)[C@@H]1O
12,0.251,OC[C@H]1O[C@@H](n2cnc3c(CSc4ccc(Cl)cc4)ncnc32)[C@H](O)[C@@H]1O
13,0.427,Cc1c(CNc2ncnc3c2ncn3[C@@H]2O[C@H](CO)[C@@H](O)[C@H]2O)cccc1[N+](=O)[O-]
14,0.331,OC[C@H]1O[C@@H](n2cnc3c(CSc4cccc(C(F)(F)F)c4)ncnc32)[C@H](O)[C@@H]1O
15,4.79,CC(C)c1ccc(CSc2ncnc3c2ncn3[C@@H]2O[C@H](CO)[C@@H](O)[C@H]2O)cc1
16,389,OC[C@H]1O[C@@H](n2ccc3c(S)ncnc32)[C@H](O)[C@@H]1O
17,6.31,Cc1ccccc1CSc1ncnc2c1ncn2[C@@H]1O[C@H](CO)[C@@H](O)[C@H]1O
18,12,Cc1cccc(CSc2ncnc3c2ncn3[C@@H]2O[C@H](CO)[C@@H](O)[C@H]2O)c1

# The remaining lines, values behind:
row,Structure (SMILES),IC50 [µM]
1,Cc1cc(CNc2ncnc3c2ncn3[C@@H]2O[C@H](CO)[C@@H](O)[C@H]2O)ccc1[N+](=O)[O-],0.0871
2,CC(C)(C)c1ccc(SCc2ncnc3c2ncn3[C@@H]2O[C@H](CO)[C@@H](O)[C@H]2O)cc1,331
3,CC(=O)c1ccccc1Sc1nc(N)nc2c1ncn2[C@@H]1O[C@H](CO)[C@@H](O)[C@H]1O,447
4,CSc1ncnc2c1ncn2C1CCCCO1 (stereo not given),275
5,Cc1ccc([N+](=O)[O-])c(CNc2ncnc3c2ncn3[C@@H]2O[C@H](CO)[C@@H](O)[C@H]2O)c1,1.29
6,Cc1cc(C)c(SCc2ncnc3c2ncn3[C@@H]2O[C@H](CO)[C@@H](O)[C@H]2O)c(C)c1,33.1
7,CCCCn1cnc2c(SC(C)C)nc(N)nc21,120
8,O=[N+]([O-])c1cccc(SCc2ncnc3c2ncn3[C@@H]2O[C@H](CO)[C@@H](O)[C@H]2O)c1,0.00479
9,CC(C)CSc1nc(N)nc2c1ncn2[C@@H]1O[C@H](CO)[C@@H](O)[C@H]1O,8.71
10,CCCCn1cnc2c(SC)nc(N)nc21,219
11,C[C@H]1O[C@@H](n2cnc3c(NCc4ccc([N+](=O)[O-])cc4)ncnc32)[C@H](O)[C@@H]1O,0.0219
12,Cc1cccc(CSc2nc(N)nc3c2ncn3[C@@H]2O[C@H](CO)[C@@H](O)[C@H]2O)n1,11500
13,Nc1nc(SCc2ccc(F)cc2)c2ncn([C@@H]3O[C@H](CO)[C@@H](O)[C@H]3O)c2n1,1.15
14,CCCSc1nc(N)nc2c1ncn2[C@@H]1O[C@H](CO)[C@@H](O)[C@H]1O,32.4
15,Nc1nc(SCc2cc([N+](=O)[O-])ccc2O)c2ncn([C@@H]3O[C@H](CO)[C@@H](O)[C@H]3O)c2n1,0.00275
16,Nc1nc(SCc2ccccc2F)c2ncn([C@@H]3O[C@H](CO)[C@@H](O)[C@H]3O)c2n1,4.79
17,O=[N+]([O-])c1ccc(O)c(CSc2ncnc3c2ncn3[C@@H]2O[C@H](CO)[C@@H](O)[C@H]2O)c1,0.0331
18,O=[N+]([O-])c1cc(CNc2ncnc3c2ncn3[C@@H]2O[C@H](CO)[C@@H](O)[C@H]2O)ccc1Cl,0.708
19,O=[N+]([O-])c1ccc(CNc2ncnc3c2ncn3[C@@H]2O[C@H](CO)[C@@H](O)[C@H]2O)c(Cl)c1,0.347
20,CC(=O)Nc1ccc(CNc2ncnc3c2ncn3[C@@H]2O[C@H](CO)[C@@H](O)[C@H]2O)cc1,0.182
21,Nc1nc(SCc2ccccc2Cl)c2ncn([C@@H]3O[C@H](CO)[C@@H](O)[C@H]3O)c2n1,13.5
22,CCC(C)Sc1nc(N)nc2c1ncn2[C@@H]1O[C@H](CO)[C@@H](O)[C@H]1O (stereo not given in full),63.1
23,CCCCn1cnc2c(SCc3ccccn3)nc(N)nc21,52.5
24,Nc1nc(SCCc2ccccc2)c2ncn([C@@H]3O[C@H](CO)[C@@H](O)[C@H]3O)c2n1,16.2
25,Nc1nc(SCc2cccc([N+](=O)[O-])c2)c2ncn([C@@H]3O[C@H](CO)[C@@H](O)[C@H]3O)c2n1,0.178

row,Structure (SMILES),IC50 [µM]
1,Cc1ccc(CNc2ncnc3c2ncn3[C@@H]2O[C@H](CO)[C@@H](O)[C@H]2O)cc1[N+](=O)[O-],1.17
2,O=[N+]([O-])c1ccc(CNc2ncnc3c2ncn3[C@H]2C[C@H](O)[C@@H](CO)O2)cc1,0.0158
3,c1ccc(CCNc2ncnc3[nH]ncc23)cc1,100
4,CCCC(C)n1cnc2c(SCc3ccccn3)nc(N)nc21 (stereo not given),41.7
5,CC(C)CCNc1ncnc2[nH]ncc12,234
6,CCCn1cnc2c(SCc3ccccn3)nc(N)nc21,91.2
7,Nc1nc(SCc2ccccc2)c2ncn([C@@H]3O[C@H](CO)[C@@H](O)[C@H]3O)c2n1,5.25
8,CCCn1cnc2c(SC(C)C)nc(N)nc21,145
9,Nc1nc(SCc2ccccc2[N+](=O)[O-])c2ncn([C@@H]3O[C@H](CO)[C@@H](O)[C@H]3O)c2n1,4.57
10,CCSc1nc(N)nc2c1ncn2[C@@H]1O[C@H](CO)[C@@H](O)[C@H]1O,162
11,COC(=O)c1ccc(SCc2ncnc3c2ncn3[C@@H]2O[C@H](CO)[C@@H](O)[C@H]2O)cc1,0.813
12,Nc1nc(SCc2ccccn2)c2ncn([C@@H]3O[C@H](CO)[C@@H](O)[C@H]3O)c2n1,34.7
13,CCCSc1nc(N)nc2c1ncn2CC(C)C,63.1
14,Cn1cnc([N+](=O)[O-])c1Sc1nc(N)nc2c1ncn2[C@@H]1O[C@H](CO)[C@@H](O)[C@H]1O,575
15,CC(C)Sc1nc(N)nc2c1ncn2[C@@H]1O[C@H](CO)[C@@H](O)[C@H]1O,191
16,Nc1nc(SCc2ccc(Br)cc2)c2ncn([C@@H]3O[C@H](CO)[C@@H](O)[C@H]3O)c2n1,0.813
17,O=[N+]([O-])c1ccc(CNc2ncnc3c2ncn3[C@@H]2O[C@H](CO)C[C@H]2O)cc1,0.977
18,OC[C@H]1O[C@@H](n2cnc3c(CSc4ccc(OC(F)(F)F)cc4)ncnc32)[C@H](O)[C@@H]1O,0.123
19,Cc1ccc2ccccc2c1CSc1ncnc2c1ncn2[C@@H]1O[C@H](CO)[C@@H](O)[C@H]1O,115
20,OC[C@H]1O[C@@H](n2cnc3c(SCCCc4ccccc4)ncnc32)[C@H](O)[C@@H]1O,1.35
21,Nc1nc(SCc2cccc(Br)c2)c2ncn([C@@H]3O[C@H](CO)[C@@H](O)[C@H]3O)c2n1,2.88
22,CCCCSc1nc(N)nc2c1ncn2[C@@H]1O[C@H](CO)[C@@H](O)[C@H]1O,12
23,O=[N+]([O-])c1ccc(CNc2ncnc3c2ncn3[C@@H]2O[C@H](CCl)[C@@H](O)[C@H]2O)cc1,0.107
24,Nc1nc(SCc2cccnc2)c2ncn([C@@H]3O[C@H](CO)[C@@H](O)[C@H]3O)c2n1,14.8
